Several values for one entry are separate records, joined by “and”; a condition that tells them apart may be missing. Equal entries are not always repeated.
System: LG0703-F498-PDC complex spheroid growth
Assay: Anticancer human tumor LG0703-F498-PDC patient-derived lung adenocarcinoma cell line growth inhibition [AhR]
Conditions: for viability, T/C: stronger effect = lower value; active = viability on the fitted dose curve at most 10% of control; inactive = the rest
Procedure, shortened: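 Agents were dosed in half-log steps down from roughly clinical Cmax, or from 10 microM where Cmax was unknown, alone and with AhR antagonists. Read-out: percent test/control growth of tumor spheroids containing HUVEC and MSC stromal cells.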

[1] = curve of first compound, second compound 0.1 µM
[2] = curve of first compound, second compound 0.316 µM
[3] = curve of first compound, second compound 1 µM
[4] = curve of first compound, second compound 3.16 µM
[5] = curve of first compound, second compound 10 µM
[6] = second compound 0.1 µM, first compound 0.00316 µM
[7] = second compound 0.1 µM, first compound 0.01 µM
[8] = second compound 0.1 µM, first compound 0.0316 µM
[9] = second compound 0.1 µM, first compound 0.1 µM
[10] = second compound 0.316 µM, first compound 0.00316 µM
[11] = second compound 0.316 µM, first compound 0.01 µM
[12] = second compound 0.316 µM, first compound 0.0316 µM
[13] = second compound 0.316 µM, first compound 0.1 µM
[14] = second compound 1 µM, first compound 0.00316 µM
[15] = second compound 1 µM, first compound 0.01 µM
[16] = second compound 1 µM, first compound 0.0316 µM
[17] = second compound 1 µM, first compound 0.1 µM
[18] = second compound 3.16 µM, first compound 0.00316 µM
[19] = second compound 3.16 µM, first compound 0.01 µM
[20] = second compound 3.16 µM, first compound 0.0316 µM
[21] = second compound 3.16 µM, first compound 0.1 µM
[22] = second compound 10 µM, first compound 0.00316 µM
[23] = second compound 10 µM, first compound 0.01 µM
[24] = second compound 10 µM, first compound 0.0316 µM
[25] = second compound 10 µM, first compound 0.1 µM
[26] = second compound 0.1 µM, first compound 0.316 µM
[27] = second compound 0.1 µM, first compound 1 µM
[28] = second compound 0.316 µM, first compound 0.316 µM
[29] = second compound 0.316 µM, first compound 1 µM
[30] = second compound 1 µM, first compound 0.316 µM
[31] = second compound 1 µM, first compound 1 µM
[32] = second compound 3.16 µM, first compound 0.316 µM
[33] = second compound 3.16 µM, first compound 1 µM
[34] = second compound 10 µM, first compound 0.316 µM
[35] = second compound 10 µM, first compound 1 µM
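Note: luminescence taken as a proxy for viable cell amount.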
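Throughout, for viability, T/C: percent of DMSO vehicle control where 100% means growth equal to vehicle.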

Cn1ncnc1C1c2n[nH]c(=O)c3cc(F)cc(c23)NC1c1ccc(F)cc1 (stereo not drawn) + Cc1cncc(-c2nc(NCCc3c[nH]c4ccccc34)c3ncn(C(C)C)c3n2)c1
< 0.316 nM: IC50 [4] | IC50 [5]
active: viability, T/C (second compound 10 µM, first compound 0.000316 µM) 1.14% | viability, T/C (second compound 10 µM, first compound 0.001 µM) 1.01% | viability, T/C [22] 1.11% | viability, T/C [23] 1.03% | viability, T/C [24] 1.15% | viability, T/C [25] 1.54%
inactive: viability, T/C (second compound 0.1 µM, first compound 0.000316 µM) 101% | viability, T/C (second compound 0.1 µM, first compound 0.001 µM) 93.3% | viability, T/C [6] 93.2% | viability, T/C [7] 93.8% | viability, T/C [8] 91.3% | viability, T/C [9] 82.6% | viability, T/C (second compound 0.316 µM, first compound 0.000316 µM) 94.6% | viability, T/C (second compound 0.316 µM, first compound 0.001 µM) 108% | viability, T/C [10] 98.4% | viability, T/C [11] 98.5% | viability, T/C [12] 104% | viability, T/C [13] 89.1% | viability, T/C (second compound 1 µM, first compound 0.000316 µM) 103% | viability, T/C (second compound 1 µM, first compound 0.001 µM) 116% | viability, T/C [14] 100% | viability, T/C [15] 106% | viability, T/C [16] 109% | viability, T/C [17] 95.7% | viability, T/C (second compound 3.16 µM, first compound 0.000316 µM) 49.3% | viability, T/C (second compound 3.16 µM, first compound 0.001 µM) 47% | viability, T/C [18] 58.2% | viability, T/C [19] 42.4% | viability, T/C [20] 48% | viability, T/C [21] 54%
> 100 nM: IC50 [1] | IC50 [2] | IC50 [3]

Cc1cncc(-c2nc(NCCc3c[nH]c4ccccc34)c3ncn(C(C)C)c3n2)c1
active: viability, T/C (compound 10 µM) 0.88% [middle of 19 runs]

CC1COCCN1c1cc(-c2ccnn2C)c2ccnc(-c3ccn[nH]3)c2n1 (stereo not drawn) + CC(CO)NC(=O)c1cc(-c2ccc(Cl)cc2)nn(-c2cnn(C)c2)c1=O
666 nM: IC50 [1]
602 nM: IC50 [3]
465 nM: IC50 [2]
243 nM: IC50 [5]
inactive: viability, T/C [6] 107% | viability, T/C [7] 104% | viability, T/C [8] 93.4% | viability, T/C [9] 70.6% | viability, T/C [26] 66.2% | viability, T/C [27] 42.5% | viability, T/C [10] 93.2% | viability, T/C [11] 110% | viability, T/C [12] 96.6% | viability, T/C [13] 72.5% | viability, T/C [28] 55.8% | viability, T/C [29] 43.4% | viability, T/C [14] 108% | viability, T/C [15] 102% | viability, T/C [16] 90.7% | viability, T/C [17] 82.4% | viability, T/C [30] 58.1% | viability, T/C [31] 42.5% | viability, T/C [18] 87.5% | viability, T/C [19] 90.5% | viability, T/C [20] 78.2% | viability, T/C [21] 67.2% | viability, T/C [32] 55.1% | viability, T/C [33] 37.9% | viability, T/C [22] 101% | viability, T/C [23] 90.1% | viability, T/C [24] 82.7% | viability, T/C [25] 60.8% | viability, T/C [34] 47.1% | viability, T/C [35] 32.6%
416 nM: IC50 [4]

COc1ccc([C@@H](O)c2cc(-c3ncnc4cc(N5CCOCC5)ccc34)c(F)cc2Cl)nn1
inactive: viability, T/C (compound 0.0316 µM) 97% and 89.7% and 103% | viability, T/C (compound 0.1 µM) 94.4% and 103% and 102% | viability, T/C (compound 0.316 µM) 94.6% and 103% and 100% | viability, T/C (compound 1 µM) 93.6% and 93.9% and 90% | viability, T/C (compound 3.16 µM) 75.6% and 76.3% and 67.8% | viability, T/C (compound 10 µM) 26.7% and 26.9% and 26.5%
5770 nM and 5830 nM and 5190 nM: IC50 (curve of compound)

CC(C)c1c(-c2ccccc2)nc2c(C#N)c[nH]n2c1=O + Cc1cncc(-c2nc(NCCc3c[nH]c4ccccc34)c3ncn(C(C)C)c3n2)c1
inactive: viability, T/C [8] 108% | viability, T/C [9] 101% | viability, T/C [26] 87.2% | viability, T/C [27] 101% | viability, T/C (second compound 0.1 µM, first compound 3.16 µM) 89.1% | viability, T/C (second compound 0.1 µM, first compound 10 µM) 81.6% | viability, T/C [12] 97.3% | viability, T/C [13] 93.4% | viability, T/C [28] 96.5% | viability, T/C [29] 95.8% | viability, T/C (second compound 0.316 µM, first compound 3.16 µM) 103% | viability, T/C (second compound 0.316 µM, first compound 10 µM) 79.5% | viability, T/C [16] 106% | viability, T/C [17] 119% | viability, T/C [30] 101% | viability, T/C [31] 91.6% | viability, T/C (second compound 1 µM, first compound 3.16 µM) 91.9% | viability, T/C (second compound 1 µM, first compound 10 µM) 89.6% | viability, T/C [20] 39.1% | viability, T/C [21] 40% | viability, T/C [32] 36.9% | viability, T/C [33] 31.7% | viability, T/C (second compound 3.16 µM, first compound 3.16 µM) 29.9% | viability, T/C (second compound 3.16 µM, first compound 10 µM) 33%
> 10000 nM: IC50 [1] | IC50 [2] | IC50 [3]
active: viability, T/C [24] 1.38% | viability, T/C [25] 1.01% | viability, T/C [34] 1.64% | viability, T/C [35] 2.22% | viability, T/C (second compound 10 µM, first compound 3.16 µM) 0.57% | viability, T/C (second compound 10 µM, first compound 10 µM) 1.89%
< 31.6 nM: IC50 [4] | IC50 [5]
